Assay results published in patent US20230100838A1 (Revolution Medicines, Inc., priority 2019, published 2023).

Key:
Format in all cases: binding
[1] = biological target: K-Ras G12S (Homo sapiens, UniProt P01116, G12S); assay: K-Ras G12S cross-linking assay (comparable procedure, conjugate formation, TOF mass spectrometry); design: key: 0: No observed x-linking; conditions: Table 4, percent covalently modified K-Ras by MS
Method: Protocol: K-Ras G12D(GDP) Cross-Linking Assay
Note: while the following protocol outlines the procedure for K-Ras G12D(GDP), a person of skill in the art may substitute other Ras proteins, and may also substitute a non-hydrolyzable GTP analog for GDP to study GTP bound Ras protein.
GDP-loaded K-Ras (1-169) G12D, C51S, C80L, C118S and GDP-loaded K-Ras (1-169) C51S, C80L, C118S were adjusted to 50 μM in K-Ras assay buffer (12.5 mM HEPES, 75 mM NaCl and 1 mM MgCl2 at pH 7.4). A 5 μL aliquot of each protein solution was added to each well of a 96-well microplate containing 40 μL of assay buffer. Initial compound stocks were prepared in DMSO at 100 times their final assay concentration. Compounds were then diluted 10-fold into K-Ras assay buffer to 10 times their final concentration. A 5 μL aliquot of each diluted compound solution was added to each protein solution in the 96-well microplate to initiate the reaction, which then proceeded at room temperature. Typical final compound concentrations were 2, 10, and 25 μM. At each time point, the reactions were analyzed immediately or quenched with 5 μL of a 5% formic acid solution and kept at 4° C. until analysis. Typical assay endpoints were 1 and 24 h.
Data collection took place on an Agilent 6230 TOF Mass Spectrometer. Complete reactions were injected onto a C4 reverse-phase column to separate protein from buffer components prior to entering the mass spectrometer. The proteins were eluted from the column by increasing acetonitrile fraction in the mobile phase and fed directly into the mass analyzer. Initial analysis of raw data took place in Agilent MassHunter BioConfirm software and consisted of deconvolution of multiple protein charge states with the maximum entropy algorithm, with a mass step of 1 Da. The heights of all deconvoluted protein masses were exported for further data analysis. The percent modification of each protein was then determined by calculating the peak height of the covalently modified K-Ras species as a percentage of the sum total of K-Ras protein peak height.

[2] = biological target: T1, GDP-loaded K-Ras (1-169) G12D, C51S, C80L, C118S (Homo sapiens, UniProt P01116, C118S/C51S/C80L/G12D); assay: K-Ras G12D(GDP) cross-linking assay (conjugate formation, TOF mass spectrometry); design: key: 0: No observed x-linking; +: 0 < x ≤ 20; ++: 20 < x ≤ 40; +++: 40 < x ≤ 100; conditions: percent covalently modified K-Ras by MS, room temperature, typical compound conc. 2, 10, 25 μM, endpoints 1 and 24 h
T1 construct: GDP-loaded K-Ras (1-169) G12D, C51S, C80L, C118S
Procedure, shortened: (§1)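 5 μM protein (final, from 50 μM) in HEPES/NaCl/MgCl2 buffer pH 7.4 with compound typically at 2, 10 and 25 μM, room temperature, 1 and 24 h endpoints; formic acid quench. Intact-protein LC–TOF MS; percent modification is covalent adduct peak height over total K-Ras peak height.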

[3] = biological target: T2, GDP-loaded K-Ras (1-169) C51S, C80L, C118S (Homo sapiens, UniProt P01116, C118S/C51S/C80L); assay: K-Ras WT (GDP) cross-linking assay (conjugate formation, TOF mass spectrometry); design: key: 0: No observed x-linking; +: 0 < x ≤ 20; ++: 20 < x ≤ 40; +++: 40 < x ≤ 100; conditions: percent covalently modified K-Ras by MS, room temperature, typical compound conc. 2, 10, 25 μM, endpoints 1 and 24 h
T2 construct: GDP-loaded K-Ras (1-169) C51S, C80L, C118S
Procedure, shortened: as §1

SMILES	G12S x-linking (%) [1]	G12D x-linking (%) ([2]; Table 4)	WT x-linking (%) ([3]; Table 4)	G12D x-linking (%) ([2]; Table 5)	WT x-linking (%) ([3]; Table 5)
Fc1ccccc1-c1c(Cl)cc2c(N3CCC(N=C=NCc4ccccc4)CC3)ncnc2c1F [Example 1, N-benzyl-N-(1-(6-chloro-8-fluoro-7-(2-fluorophenyl)quinazolin-4-yl)piperidin-4-yl)methanediimine]	+ (0 < x ≤ 10)	+ (0 < x ≤ 20)	+ (0 < x ≤ 20)	–	–
Fc1ccccc1-c1c(Cl)cc2c(N3CCC(N=C=Nc4ccccc4)CC3)ncnc2c1F [Example 2, N-(1-(6-chloro-8-fluoro-7-(2-fluorophenyl)quinazolin-4-yl)piperidin-4-yl)-N-phenylmethanediimine]	+ (0 < x ≤ 10)	+ (0 < x ≤ 20)	+ (0 < x ≤ 20)	–	–
CC(C)N=C=NC1CCN(c2ncnc3c(F)c(-c4ccccc4F)c(Cl)cc23)CC1 [Example 3]	+ (0 < x ≤ 10)	+ (0 < x ≤ 20)	+ (0 < x ≤ 20)	–	–
CN=C=NC1CCN(c2ncnc3c(F)c(-c4ccccc4F)c(Cl)cc23)CC1 [Example 4, N-(1-(6-chloro-8-fluoro-7-(2-fluorophenyl)quinazolin-4-yl)piperidin-4-yl)-N-methylmethanediimine]	++ (10 < x ≤ 100)	+ (0 < x ≤ 20)	+ (0 < x ≤ 20)	–	–
COc1ccc(N=C=NC2CCN(c3ncnc4c(F)c(-c5ccccc5F)c(Cl)cc34)CC2)cc1 [Example 5, N-(1-(6-chloro-8-fluoro-7-(2-fluorophenyl)quinazolin-4-yl)piperidin-4-yl)-N-(4-methoxyphenyl)methanediimine]	0	0	0	–	–
Fc1ccccc1-c1c(Cl)cc2c(N3CCC(N=C=Nc4ccc(Cl)cc4)CC3)ncnc2c1F [Example 6, N-(1-(6-chloro-8-fluoro-7-(2-fluorophenyl)quinazolin-4-yl)piperidin-4-yl)-N-(4-chiorophenyl)methanediimine]	0	0	0	–	–
CN(CCN=C=Nc1ccccc1)c1ncnc2c(F)c(-c3ccccc3F)c(Cl)cc12 [Example 7, 6-chloro-8-fluoro-7-(2-fluorophenyl)-N-methyl-N-(2-(((phenylimino)methylene)amino)ethyl)quinazolin-4-amine]	+ (0 < x ≤ 10)	+ (0 < x ≤ 20)	+ (0 < x ≤ 20)	–	–
CN(CCN=C=NCc1ccccc1)c1ncnc2c(F)c(-c3ccccc3F)c(Cl)cc12 [Example 8, N-(2-(((benzylimino)methylene)amino)ethyl)-6-chloro-8-fluoro-7-(2-fluorophenyl)-N-methylquinazolin-4-amine]	+ (0 < x ≤ 10)	+ (0 < x ≤ 20)	+ (0 < x ≤ 20)	–	–
CN=C=NCCN(C)c1ncnc2c(F)c(-c3ccccc3F)c(Cl)cc12 [Example 9, 6-chloro-8-fluoro-7-(2-fluorophenyl)-N-methyl-N-(2-(((methylimino)methylene)amino)ethyl)quinazolin-4-amine]	+ (0 < x ≤ 10)	+ (0 < x ≤ 20)	+ (0 < x ≤ 20)	–	–
COCC1(N=C=N[C@H]2C[C@H](Nc3nc(OC[C@@H]4CCCN4C)nc4c3CCN(c3cccc5cccc(C)c35)C4)C2)CC1 [Example 152]	–	–	–	+++ (40 < x ≤ 100)	+ (0 < x ≤ 20)
COCC1(N=C=N[C@@H]2CCN(c3nc(OC[C@@H]4CCCN4C)nc4c3CCN(c3cccc5cccc(C)c35)C4)C[C@@H]2CC#N)CC1 [Example 153]	–	–	–	++ (20 < x ≤ 40)	+ (0 < x ≤ 20)
